According to ChEMBL document CHEMBL5236587, “Discovery of oxazoline enhancers of cellular progranulin release” (Bioorg Med Chem Lett, 2023):

Tests used:
[1] = Induction of progranulin secretion in mouse BV-2 cells; assay type: functional, cell-based
[2] = target: Voltage-gated inwardly rectifying potassium channel KCNH2 (Homo sapiens, UniProt Q12809); assay: Inhibition of human ERG; assay type: toxicity
[3] = Protein binding in mouse brain assessed as unbound fraction; assay type: ADME, tissue-based
[4] = Unbound Cmax in mouse at 10 mg/kg, po or 1 mg/kg, iv; assay type: ADME, organism-based; conditions: in vivo
[5] = Efflux ratio of apparent permeability in MDCK-MDR1 cells; assay type: ADME, cell-based, Canis lupus familiaris; conditions: dog
[6] = Protein binding in human assessed as unbound fraction; assay type: ADME
[7] = Volume of distribution at steady state in mouse at 10 mg/kg, po or 1 mg/kg, iv; assay type: ADME, organism-based; conditions: in vivo
[8] = Metabolic stability in mouse hepatocytes assessed as intrinsic clearance; assay type: ADME, cell-based, Hepatocyte
[9] = Protein binding in mouse assessed as unbound fraction; assay type: ADME
[10] = Metabolic stability in mouse hepatocytes assessed as half life measured upto 120 mins; assay type: ADME, cell-based, Hepatocyte
[11] = Apparent permeability across apical to basolateral side in MDCK-MDR1 cells; assay type: ADME, cell-based, Canis lupus familiaris; conditions: dog
[12] = Bioavailability in mouse at 10 mg/kg, po or 1 mg/kg, iv; assay type: ADME, organism-based; conditions: in vivo
[13] = Metabolic stability in human hepatocytes assessed as half life measured upto 120 mins; assay type: ADME, cell-based, Hepatocyte
[14] = Clearance in mouse at 10 mg/kg, po or 1 mg/kg, iv; assay type: ADME, organism-based; conditions: in vivo
[15] = Half life in mouse at 1 mg/kg, iv; assay type: ADME, organism-based; conditions: in vivo
[16] = Unbound brain to plasma partition coefficient in mouse at 10 mg/kg, po or 1 mg/kg, iv after 8 hrs; assay type: ADME, organism-based; conditions: read-out: K(p,uu,brain)
[17] = Metabolic stability in human hepatocytes assessed as intrinsic clearance; assay type: ADME, cell-based, Hepatocyte
[18] = Half life in mouse at 10 mg/kg, po; assay type: ADME, organism-based; conditions: in vivo

Sequence of Voltage-gated inwardly rectifying potassium channel KCNH2 (Q12809 whole entry): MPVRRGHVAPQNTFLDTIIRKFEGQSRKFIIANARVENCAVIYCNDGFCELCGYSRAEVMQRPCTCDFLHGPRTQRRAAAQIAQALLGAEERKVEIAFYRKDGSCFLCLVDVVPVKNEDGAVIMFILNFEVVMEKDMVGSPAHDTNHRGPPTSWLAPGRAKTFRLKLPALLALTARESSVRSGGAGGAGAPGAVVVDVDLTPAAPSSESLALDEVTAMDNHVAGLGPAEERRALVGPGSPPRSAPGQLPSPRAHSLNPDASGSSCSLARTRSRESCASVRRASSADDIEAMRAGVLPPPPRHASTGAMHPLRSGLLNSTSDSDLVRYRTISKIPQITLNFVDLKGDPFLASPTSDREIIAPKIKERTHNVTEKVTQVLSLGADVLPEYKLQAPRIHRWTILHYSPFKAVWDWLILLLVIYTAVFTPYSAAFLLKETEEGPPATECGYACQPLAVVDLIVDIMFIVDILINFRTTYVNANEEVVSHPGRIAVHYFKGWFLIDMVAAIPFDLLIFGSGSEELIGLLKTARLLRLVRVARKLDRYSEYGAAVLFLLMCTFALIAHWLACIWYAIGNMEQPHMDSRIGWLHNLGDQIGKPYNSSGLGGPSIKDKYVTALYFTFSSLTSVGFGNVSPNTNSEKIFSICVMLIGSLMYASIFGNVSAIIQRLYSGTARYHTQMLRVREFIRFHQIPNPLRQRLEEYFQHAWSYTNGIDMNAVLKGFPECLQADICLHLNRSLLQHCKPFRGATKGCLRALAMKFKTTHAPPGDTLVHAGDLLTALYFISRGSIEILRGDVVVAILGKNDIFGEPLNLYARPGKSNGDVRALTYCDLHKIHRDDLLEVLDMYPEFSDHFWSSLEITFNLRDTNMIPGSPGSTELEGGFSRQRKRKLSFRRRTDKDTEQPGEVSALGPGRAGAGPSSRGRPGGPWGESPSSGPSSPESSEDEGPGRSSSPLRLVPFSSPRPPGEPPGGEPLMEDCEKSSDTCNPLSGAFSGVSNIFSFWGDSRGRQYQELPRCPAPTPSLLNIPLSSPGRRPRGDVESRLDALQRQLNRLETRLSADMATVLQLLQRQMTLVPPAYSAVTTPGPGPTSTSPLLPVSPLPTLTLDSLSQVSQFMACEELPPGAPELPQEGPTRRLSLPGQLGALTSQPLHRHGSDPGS

## Fc1ccc([C@H]2c3ccccc3CCN2C2=N[C@@]3(CCCNC3)CO2)cc1
[1]
  EC50: 38 nM

## CN1CC[C@]2(CN=C(N3CCc4ccccc4[C@@H]3c3ccc(F)cc3)O2)C1
[1]
  EC50: 69 nM
[2]
  IC50: 510 nM

## Fc1ccc([C@H]2c3ccccc3CCN2C2=NC[C@]3(CCNC3)O2)cc1
[1]
  EC50: 21 nM

## N[C@H]1CC[C@@]2(CN=C(N3CCc4ccccc4[C@@H]3c3ccc(F)cc3)O2)C1
[1]
  EC50: 127 nM

## CN(C)[C@H]1CC[C@@]2(CN=C(N3CCc4ccccc4[C@@H]3c3ccc(F)cc3)O2)C1
[1]
  EC50: 237 nM
[2]
  IC50: 3600 nM

## Fc1ccc([C@H]2c3ccccc3CCN2C2=N[C@H](C3CN4CCC3CC4)CO2)cc1 (stereo not given in full)
[1]
  EC50: 126 nM

## Fc1ccc([C@H]2c3ccccc3CCN2C2=NC[C@@H](C3(F)CNC3)O2)cc1
[3]
  fraction unbound: 0.01
[4]
  fCmax: 11 nM
[5]
  efflux ratio: 1.07
[6]
  fraction unbound: 0.068
[7]
  Vdss: 12.2 L/kg
[8]
  CLH: < 68.2 µL/min/mg
[9]
  fraction unbound: 0.021
[1]
  EC50: 132 nM
[10]
  half-life: > 2 h
[2]
  IC50: 3600 nM
[11]
  Papp A→B: 0.87 ×10⁻⁶ cm/s
[12]
  bioavailability: 38%
[13]
  half-life: > 2 h
[14]
  CL: 89.3 mL/min/kg
[15]
  half-life: 2.2 h
[16]
  Kp uu at 8 h: 8.33
[17]
  CLH: < 14.7 µL/min/mg
[18]
  half-life: 2.6 h

## Fc1ccc([C@H]2c3ccccc3CCN2C2=NC[C@H]3CNCC[C@@H]3O2)cc1
[1]
  EC50: 1550 nM

## N[C@H]1CC[C@@]2(COC(N3CCc4ccccc4[C@@H]3c3ccc(F)cc3)=N2)C1
[1]
  EC50: 204 nM

## Fc1ccc([C@H]2c3ccccc3CCN2C2=NC[C@@]3(CCNC3)O2)cc1
[3]
  fraction unbound: 0.041
[5]
  efflux ratio: 3.09
[7]
  Vdss: 57.2 L/kg
[8]
  CLH: < 68.2 µL/min/mg
[1]
  EC50: 38 nM
[10]
  half-life: > 2 h
[2]
  IC50: 4800 nM
[11]
  Papp A→B: 3 ×10⁻⁶ cm/s
[12]
  bioavailability: 74%
[13]
  half-life: > 2 h
[14]
  CL: 49.8 mL/min/kg
[15]
  half-life: 15.6 h
[17]
  CLH: < 14.7 µL/min/mg
[18]
  half-life: 11.9 h

## Fc1ccc([C@H]2c3ccccc3CCN2C2=NC[C@H]3NCC[C@H]3O2)cc1
[1]
  EC50: 423 nM

## Fc1ccc([C@H]2c3ccccc3CCN2C2=NC[C@@H]3CNCC[C@@H]3O2)cc1
[3]
  fraction unbound: 0.009
[5]
  efflux ratio: 9.04
[6]
  fraction unbound: 0.375
[9]
  fraction unbound: 0.253
[1]
  EC50: 57 nM
[2]
  IC50: 21000 nM
[11]
  Papp A→B: 1.4 ×10⁻⁶ cm/s

## Fc1ccc([C@H]2c3ccccc3CCN2C2=NC3(CCNCC3)CO2)cc1
[1]
  EC50: 157 nM

## N[C@@H]1CC[C@@]2(CN=C(N3CCc4ccccc4[C@@H]3c3ccc(F)cc3)O2)C1
[1]
  EC50: 119 nM
[2]
  IC50: 8800 nM

## Fc1ccc([C@H]2c3ccccc3CCN2C2=N[C@@H](C3CN4CCC3CC4)CO2)cc1 (stereo not given in full)
[1]
  EC50: 231 nM

## Fc1ccc([C@H]2c3ccccc3CCN2C2=NC[C@@H]3CNC[C@@H]3O2)cc1
[1]
  EC50: 950 nM

## N[C@H]1CC[C@]2(COC(N3CCc4ccccc4[C@@H]3c3ccc(F)cc3)=N2)C1
[1]
  EC50: 160 nM

## Fc1ccc([C@H]2c3ccccc3CCN2C2=N[C@]3(CCCNC3)CO2)cc1
[1]
  EC50: 85 nM

## CN(C)[C@H]1CC[C@]2(CN=C(N3CCc4ccccc4[C@@H]3c3ccc(F)cc3)O2)C1
[1]
  EC50: 137 nM
[2]
  IC50: 7800 nM

## N[C@H]1CC[C@]2(CN=C(N3CCc4ccccc4[C@@H]3c3ccc(F)cc3)O2)C1
[1]
  EC50: 110 nM

## Fc1ccc([C@H]2c3ccccc3CCN2C2=NC[C@@H]([C@@H]3CCNC3)O2)cc1
[1]
  EC50: 55 nM
[2]
  IC50: 5400 nM

## Fc1ccc([C@H]2c3ccccc3CCN2C2=NC[C@@H]3CNCC[C@H]3O2)cc1
[1]
  EC50: 35 nM
[2]
  IC50: 3100 nM

## Fc1ccc([C@H]2c3ccccc3CCN2C2=NC[C@@H](C3CN4CCC3(F)CC4)O2)cc1 (stereo not given in full)
[1]
  EC50: 382 nM

## Fc1ccc([C@H]2c3ccccc3CCN2C2=N[C@@H](C3(F)CNC3)CO2)cc1
[1]
  EC50: 119 nM
[2]
  IC50: 10000 nM

## Fc1ccc([C@H]2c3ccccc3CCN2C2=NC[C@H](C3CNC3)O2)cc1
[1]
  EC50: 109 nM
[2]
  IC50: 2200 nM

## CN1CCC2(CC1)COC(N1CCc3ccccc3[C@@H]1c1ccc(F)cc1)=N2
[1]
  EC50: 7030 nM

## Fc1ccc([C@H]2c3ccccc3CCN2C2=NC[C@]3(CCCNC3)O2)cc1
[1]
  EC50: 64 nM

## NC[C@H]1C[C@]2(CN=C(N3CCc4ccccc4[C@@H]3c3ccc(F)cc3)O2)C1
[1]
  EC50: 206 nM

## Fc1ccc([C@H]2c3ccccc3CCN2C2=NC[C@H]3CNCC[C@H]3O2)cc1
[1]
  EC50: 335 nM

## N[C@@H]1CC[C@]2(CN=C(N3CCc4ccccc4[C@@H]3c3ccc(F)cc3)O2)C1
[1]
  EC50: 236 nM

## OCCCN1CC[C@@]2(CN=C(N3CCc4ccccc4[C@@H]3c3ccc(F)cc3)O2)C1
[1]
  EC50: 181 nM
[2]
  IC50: 4800 nM

## Fc1ccc([C@H]2c3ccccc3CCN2C2=NC[C@@H]3NCC[C@H]3O2)cc1
[1]
  EC50: 659 nM

## NC[C@H]1C[C@@]2(CN=C(N3CCc4ccccc4[C@@H]3c3ccc(F)cc3)O2)C1
[1]
  EC50: 993 nM

## Fc1ccc([C@H]2c3ccccc3CCN2C2=N[C@@H]3CNC[C@@H]3O2)cc1
[1]
  EC50: 674 nM

## Fc1ccc([C@H]2c3ccccc3CCN2C2=NC[C@H]([C@H]3CCNC3)O2)cc1
[1]
  EC50: 85 nM
[2]
  IC50: 2300 nM

## Fc1ccc([C@H]2c3ccccc3CCN2C2=NC[C@@H]3NCC[C@@H]3O2)cc1
[1]
  EC50: 455 nM

## Fc1ccc([C@H]2c3ccccc3CCN2C2=NC[C@H](C3CN4CCC3(F)CC4)O2)cc1 (stereo not given in full)
[1]
  EC50: > 10000 nM

## N[C@H]1C[C@@]2(COC(N3CCc4ccccc4[C@@H]3c3ccc(F)cc3)=N2)C1
[1]
  EC50: 639 nM

## Fc1ccc([C@H]2c3ccccc3CCN2C2=NC[C@@H](C3CNC3)O2)cc1
[1]
  EC50: 97 nM
[2]
  IC50: 6200 nM

## OCCN1CC[C@H]2OC(N3CCc4ccccc4[C@@H]3c3ccc(F)cc3)=NC[C@H]2C1
[1]
  EC50: 230 nM

## Fc1ccc([C@H]2c3ccccc3CCN2C2=NC[C@@]3(CCCNC3)O2)cc1
[1]
  EC50: 502 nM

## Fc1ccc([C@H]2c3ccccc3CCN2C2=NC[C@H]3CNC[C@H]3O2)cc1
[1]
  EC50: 111 nM
[2]
  IC50: 5100 nM

## CN(C)[C@H]1C[C@]2(CN=C(N3CCc4ccccc4[C@@H]3c3ccc(F)cc3)O2)C1
[1]
  EC50: 3580 nM

## Fc1ccc([C@H]2c3ccccc3CCN2C2=NC[C@H](C3(F)CNC3)O2)cc1
[1]
  EC50: 192 nM
[2]
  IC50: 11000 nM

## Fc1ccc([C@H]2c3ccccc3CCN2C2=NC[C@@H]([C@H]3CCNC3)O2)cc1
[1]
  EC50: 244 nM
[2]
  IC50: 3900 nM

## CN(C)[C@H]1C[C@@]2(CN=C(N3CCc4ccccc4[C@@H]3c3ccc(F)cc3)O2)C1
[1]
  EC50: 209 nM
[2]
  IC50: 7000 nM

## Fc1ccc([C@H]2c3ccccc3CCN2C2=N[C@H]3CNC[C@H]3O2)cc1
[1]
  EC50: 517 nM

## OCCN1CC[C@@H]2OC(N3CCc4ccccc4[C@@H]3c3ccc(F)cc3)=NC[C@@H]2C1
[1]
  EC50: 37 nM

## Fc1ccc([C@H]2c3ccccc3CCN2C2=NCC3(CCNCC3)O2)cc1
[1]
  EC50: 59 nM

## CN1CC[C@@]2(CN=C(N3CCc4ccccc4[C@@H]3c3ccc(F)cc3)O2)C1
[1]
  EC50: 176 nM
[2]
  IC50: 1700 nM

## CN1CCCC2(COC(N3CCc4ccccc4[C@@H]3c3ccc(F)cc3)=N2)C1 (stereo not given in full)
[1]
  EC50: 796 nM

## Fc1ccc([C@H]2c3ccccc3CCN2C2=NC[C@H](C3CN4CCC3CC4)O2)cc1 (stereo not given in full)
[1]
  EC50: 387 nM
[2]
  IC50: 680 nM

## Fc1ccc([C@H]2c3ccccc3CCN2C2=N[C@H]3CNC[C@H]3CO2)cc1
[1]
  EC50: 275 nM
[2]
  IC50: 3300 nM

## N[C@H]1C[C@@]2(CN=C(N3CCc4ccccc4[C@@H]3c3ccc(F)cc3)O2)C1
[1]
  EC50: 522 nM

## Fc1ccc([C@H]2c3ccccc3CCN2C2=NC[C@H]([C@@H]3CCNC3)O2)cc1
[1]
  EC50: 208 nM
[2]
  IC50: 6700 nM
